“And” between values parts separate entries of the source, which are not always exact repeats. Identical values can stand only once. Like-named read-outs stand apart in the source and are kept apart here. Where a SMILES comes first, the peptide text is derived from it. Bridges are numbered along the chain shown (N, C = ends). [ ]: non-standard residue; d: D form. Orn(fluoroacetimidoyl) = N=C(CF)NCCC[C@H](N)C(=O)O
Legend:
PADIs 1-4 = assay: COLDER citrullination activity of purified PADIs 1-4 and PADI4 C645A (no inhibitor); type: biochemical, human; parameters: key to Citrullination activity of PADI4 WT / C645A (Figure S4c): absorbance at 540 nm (colorimetric citrulline readout); conditions: for Citrullination activity of PADI4 WT / C645A (Figure S4c): no inhibitor; for Absorbance at 540 nm: purified PADI enzyme, no inhibitor (Figure S10)
Description: (§1) PADI4 citrullination activity was analysed using the COLDER assay in 96-well plates. Peptide dilutions were prepared from a 500 µM stock, to give a 10 times concentrated dilution series (500 µM, 300 µM, 100 µM, 30 µM, 10 µM, 3 µM, 1 µM, 0.3 µM, 0.1 µM and 0.03 µM) in COLDER buffer (50 mM HEPES, 150 mM NaCl and 2 mM DTT, pH 7.5) containing 1% DMSO. In triplicate, each was diluted 10-fold further when mixed with 50 nM His-PADI4, 0.6 mg/mL BSA and 10 mM CaCl2, in COLDER buffer. With or without one hour of incubation, 10 mM N^α-Benzoyl-L-arginine ethyl ester hydrochloride (BAEE, Merck) was added to initiate the reaction (50 µL final volume). After 30 min at rt, EDTA (50 mM final concentration) was used to quench the reaction and 200 µL of COLDER solution containing 20 mM Diacetyl monoxime/2,3-butanedione monoxime (Merck), 0.5 mM Thiosemicarbazide (Acros Organics), 2.25 M H3PO4, 4.5 M H2SO4 and 1.5 mM NH4Fe(SO4)2.12H2O was added to each well. Samples were incubated for 20 min at 95 °C before measuring absorbance at 540 nm on a CLARIOstar Plus (BMG LABTECH). Data analysis was performed with GraphPad Prism. Data are presented as the average ± standard error of the mean from at least two independent replicates.

PADI4 [1] = target: T1, PADI4 (Homo sapiens, UniProt Q9UM07); assay: COLDER inhibition assay, BAEE substrate, with or without 1 h preincubation; type: biochemical; conditions: for IC50: COLDER; for remaining activity at 0.003 µM: peptide 0.003 µM
T1 construct: His6; made in house
T1 sequence (Q9UM07 whole entry): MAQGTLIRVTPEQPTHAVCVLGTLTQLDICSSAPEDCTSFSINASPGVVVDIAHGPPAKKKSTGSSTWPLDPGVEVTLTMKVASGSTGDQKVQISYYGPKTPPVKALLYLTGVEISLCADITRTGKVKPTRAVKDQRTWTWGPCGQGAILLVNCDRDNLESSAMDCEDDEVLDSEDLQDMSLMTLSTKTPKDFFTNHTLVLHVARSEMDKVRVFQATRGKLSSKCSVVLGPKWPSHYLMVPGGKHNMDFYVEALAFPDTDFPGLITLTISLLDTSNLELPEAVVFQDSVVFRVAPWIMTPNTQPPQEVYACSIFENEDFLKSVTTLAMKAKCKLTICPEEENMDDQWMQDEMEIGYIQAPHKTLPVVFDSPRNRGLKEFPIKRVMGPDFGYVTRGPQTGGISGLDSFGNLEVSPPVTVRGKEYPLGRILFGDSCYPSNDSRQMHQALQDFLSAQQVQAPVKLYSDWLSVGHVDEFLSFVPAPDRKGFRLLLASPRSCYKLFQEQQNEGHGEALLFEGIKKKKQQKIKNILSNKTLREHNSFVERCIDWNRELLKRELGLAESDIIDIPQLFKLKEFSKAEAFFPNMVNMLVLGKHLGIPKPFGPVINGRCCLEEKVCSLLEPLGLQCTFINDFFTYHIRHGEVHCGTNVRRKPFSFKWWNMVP
Description: as §1

PADI4 [2] = target: T1, PADI4; assay: Incubation time-dependent COLDER assay IC50(t), Krippendorff fit; type: biochemical; conditions: for IC50: replicates, read-out: apparent IC50
Description: To determine KI and kinact of covalent peptide inhibitors, COLDER assays were used[52]. Peptide dilutions were prepared using 5-fold dilutions from 500 µM and 300 µM to 0.8 µM and 2.4 µM, respectively, at 1% DMSO in COLDER buffer (50 mM HEPES, 150 mM NaCl and 2 mM DTT, pH 7.5). The 9 peptide dilutions were added to a 96-well plate, alongside a 1% DMSO control. An equal volume of 10 mM BAEE was added to each well and the solution was homogenised by pipette mixing. This was mixed with 50 nM His-PADI4, 0.6 mg/mL BSA and 10 mM CaCl2, in COLDER buffer, to bring the final volume to 300 µL in each well. Alternatively, His-PAD1 (100 nM) /His-PADI2 (100 nM) /His-PADI3 (250 nM) were used. For assays with PADI1 and PADI3, 10 mM N^α-benzoyl-L-arginine methyl […] (BAME) was used as the substrate instead of BAEE[48],[58],[59]. At 15-minute intervals, for 5 timepoints, 50 µL of solution was taken from each well and quenched with 10 µL EDTA (300 mM). 200 µL of COLDER solution containing 20 mM diacetyl monoxime/2,3-butanedione monoxime (Merck), 0.5 mM thiosemicarbazide (Acros Organics), 2.25 M H3PO4, 4.5 M H2SO4 and 1.5 mM NH4Fe(SO4)2.12H2O was added to each well. Samples were incubated for 20 min at 95 °C before measuring absorbance at 540 nm on a CLARIOstar Plus (BMG LABTECH). IC50 values for each time point were determined using non-linear regression with GraphPad Prism. Incubation time–dependent potency IC50(t) against incubation time was fitted to the Krippendorff equation (below) to determine KI and kinact using a Python script[53],[59]. […] IC50t=KI1+S/KM⋅2−2e^−ηIC50⋅kinact⋅t/ηIC50⋅kinact⋅t−1 WhereηIC50=IC50t/KI1+S/KM+IC50t

PADI4 [3] = target: T1, PADI4; assay: Surface plasmon resonance (SPR), single cycle kinetics; type: binding
Description: S8. Surface plasmon resonance (SPR)
Using a Biacore S200 (GE Healthcare), biotinylated His-PADI4 (80 nM) was immobilised on a CAP chip (GE Healthcare) to a response unit of approx. 3000. At 25 °C, single cycle kinetics mode was used with 5 samples of a 3-fold dilution series of peptides PADI4_3_H4(2), cP4_2, […]
mM HEPES, 150 mM NaCl, 10 mM CaCl2, 0.05% Tween-20, 0.1% DMSO (pH 7.5). After each cycle, regeneration of the chip was carried out as per the manufacturer’s protocol. Data were analysed with the Biacore S200 Evaluation Software, each in triplicate. Warhead-containing peptides were analysed using the two-state reaction model, with the rate constant for the reverse second step (k-2) set to zero. The equilibrium constant of the reversible binding step, Ki, was calculated as the ratio of k-1/k+1 and the rate constant of the irreversible chemical step, kinact, as k+2. The Arg4, Cit4 and Me4 peptides were fitted using a 1:1 binding model. […]

[4] = Krippendorff fit of IC50 vs time

WT
Citrullination activity of PADI4 WT / C645A (Figure S4c) (PADIs 1-4; +EDTA): 0.259 and 0.261 and 0.247 and 0.193 and 0.23 and 0.231 | Citrullination activity of PADI4 WT / C645A (Figure S4c) (PADIs 1-4; -EDTA): 1.114 and 1.151 and 1.275 and 1.3 and 1.248

PADI2
Absorbance at 540 nm (PADIs 1-4): 0.974 and 1.004 and 1.007 and 0.7767 and 0.7637 and 0.7657

PADI4
Absorbance at 540 nm (PADIs 1-4): 1.538 and 1.537 and 1.638 and 1.921 and 1.811 and 1.856

CC(C)[C@@H]1NC(=O)[C@@H](Cc2ccc(O)cc2)NC(=O)CSC[C@@H](C(=O)NCC(N)=O)NC(=O)[C@H](Cc2ccc(O)cc2)NC(=O)[C@H](CCCCN)NC(=O)[C@H](Cc2c[nH]c3ccccc23)NC(=O)[C@H](CCC(=O)O)NC(=O)[C@H](CCCCN)NC(=O)[C@H](CCCNC(=N)CF)NC(=O)[C@H](CO)NC(=O)[C@H](Cc2ccc(O)cc2)NC1=O [cP4_7, yVYS(2)KEWKYCG] ({CH2CO}-[dY]VYS[Orn(fluoroacetimidoyl)]KEWKYCG-NH2; thioether N-11)
IC50 (PADI4 [1]; 1 h preincubation of peptide and PADI4, 10 mM CaCl2, read-out: IC50 Values 1 h preincubation): 0.16 ± 0.02 µM | IC50 (PADI4 [1]; no preincubation of peptide and PADI4, 10 mM CaCl2, read-out: IC50 Values 0 h preincubation): 8 ± 1.2 µM | remaining activity at 0.003 µM (PADI4 [1]; T=0, values starred, read-out: PADI4 activity normalised to 0.1% DMSO): 99.1% | remaining activity at 0.003 µM (PADI4 [1]; T=1, read-out: PADI4 activity normalised to 0.1% DMSO): 99.2% | remaining activity at 0.01 µM (PADI4 [1]; peptide 0.01 µM, T=0, values starred, read-out: PADI4 activity normalised to 0.1% DMSO): 99.2% | remaining activity at 0.1 µM (PADI4 [1]; peptide 0.1 µM, T=0, read-out: PADI4 activity normalised to 0.1% DMSO): 100% | remaining activity at 1 µM (PADI4 [1]; peptide 1 µM, T=0, read-out: PADI4 activity normalised to 0.1% DMSO): 93.8% | remaining activity at 3 µM (PADI4 [1]; peptide 3 µM, T=0, read-out: PADI4 activity normalised to 0.1% DMSO): 79% | remaining activity at 10 µM (PADI4 [1]; peptide 10 µM, T=0, read-out: PADI4 activity normalised to 0.1% DMSO): 49.3% | remaining activity at 30 µM (PADI4 [1]; peptide 30 µM, T=0, read-out: PADI4 activity normalised to 0.1% DMSO): 20.9% | kinact/KI (PADI4 [2]): 300 M⁻¹ s⁻¹ | IC50 (PADI4 [2]; 15 mins): 27.7 µM and 48.2 µM and 40.3 µM | IC50 (PADI4 [2]; 30 mins): 12.5 µM and 21.4 µM and 18.5 µM | IC50 (PADI4 [2]; 45 mins): 8.85 µM and 10 µM and 8.94 µM | IC50 (PADI4 [2]; 60 mins): 6.22 µM and 7.03 µM and 7.47 µM | IC50 (PADI4 [2]; 75 mins): 5.35 µM and 5.67 µM and 6.53 µM | Ki (PADI4 [2]; [4]): 4.3 ± 1.1 µM | kinact (PADI4 [2]; [4]): 0.00128 s⁻¹ | kinact/KI (PADI4 [3]): 5720 M⁻¹ s⁻¹ | k2 / kinact (PADI4 [3]; each replicate): 0.0094 s⁻¹ | kinact (PADI4 [3]; each replicate, read-out: k2 / kinact): 0.0086 s⁻¹ | kinact (PADI4 [3]; two-state reaction model, k+2, read-out: SPR kinact (converted)): 0.00917 s⁻¹ | Ki (PADI4 [3]; two-state reaction model, k-1/k+1): 1.6 ± 0.1 µM

C645A
Citrullination activity of PADI4 WT / C645A (Figure S4c) (PADIs 1-4; +EDTA): 0.268 and 0.278 and 0.279 and 0.186 and 0.254 and 0.214 | Citrullination activity of PADI4 WT / C645A (Figure S4c) (PADIs 1-4; -EDTA): 0.211 and 0.22 and 0.222 and 0.281 and 0.285 and 0.262

B1: PADI1 (protein, UniProt Q9ULC6 1-663, looked up)
Protein-arginine deiminase …: MAPKRVVQLSLKMPTHAVCVVGVEAHVDIHSDVPKGANSFRVSGSSGVEVFMVYNRTRVKEPIGKARWPLDTDADMVVSVGTASKELKDFKVRVSYFGEQEDQALGRSVLYLTGVDISLEVDTGRTGKVKRSQGDKKTWRWGPEGYGAILLVNCDRDNHRSAEPDLTHSWLMSLADLQDMSPMLLSCNGPDKLFDSHKLVLNVPFSDSKRVRVFCARGGNSLSDYKQVLGPQCLSYEVERQPGEQEIKFYVEGLTFPDADFLGLVSLSVSLVDPGTLPEVTLFTDTVGFRMAPWIMTPNTQPPEELYVCRVMDTHGSNEKFLEDMSYLTLKANCKLTICPQVENRNDRWIQDEMEFGYIEAPHKSFPVVFDSPRNRGLKDFPYKRILGPDFGYVTREIPLPGPSSLDSFGNLDVSPPVTVGGTEYPLGRILIGSSFPKSGGRQMARAVRNFLKAQQVQAPVELYSDWLSVGHVDEFLTFVPTSDQKGFRLLLASPSACLKLFQEKKEEGYGEAAQFDGLKHQAKRSINEMLADRHLQRDNLHAQKCIDWNRNVLKRELGLAESDIVDIPQLFFLKNFYAEAFFPDMVNMVVLGKYLGIPKPYGPIINGRCCLEEKVQSLLEPLGLHCIFIDDYLSYHELQGEIHCGTNVRRKPFPFKWWNMVP
Absorbance at 540 nm (PADIs 1-4): 1.397 and 1.419 and 1.464 and 1.243 and 1.309 and 1.332

B2: PADI3 (protein, UniProt Q9ULW8 1-664, looked up)
Protein-arginine deiminase …: MSLQRIVRVSLEHPTSAVCVAGVETLVDIYGSVPEGTEMFEVYGTPGVDIYISPNMERGRERADTRRWRFDATLEIIVVMNSPSNDLNDSHVQISYHSSHEPLPLAYAVLYLTCVDISLDCDLNCEGRQDRNFVDKRQWVWGPSGYGGILLVNCDRDDPSCDVQDNCDQHVHCLQDLEDMSVMVLRTQGPAALFDDHKLVLHTSSYDAKRAQVFHICGPEDVCEAYRHVLGQDKVSYEVPRLHGDEERFFVEGLSFPDAGFTGLISFHVTLLDDSNEDFSASPIFTDTVVFRVAPWIMTPSTLPPLEVYVCRVRNNTCFVDAVAELARKAGCKLTICPQAENRNDRWIQDEMELGYVQAPHKTLPVVFDSPRNGELQDFPYKRILGPDFGYVTREPRDRSVSGLDSFGNLEVSPPVVANGKEYPLGRILIGGNLPGSSGRRVTQVVRDFLHAQKVQPPVELFVDWLAVGHVDEFLSFVPAPDGKGFRMLLASPGACFKLFQEKQKCGHGRALLFQGVVDDEQVKTISINQVLSNKDLINYNKFVQSCIDWNREVLKRELGLAECDIIDIPQLFKTERKKATAFFPDLVNMLVLGKHLGIPKPFGPIINGCCCLEEKVRSLLEPLGLHCTFIDDFTPYHMLHGEVHCGTNVCRKPFSFKWWNMVP
Absorbance at 540 nm (PADIs 1-4): 1.346 and 1.369 and 1.38 and 1.26 and 1.243 and 1.268

Reference: PMC11659602, “Discovering covalent cyclic peptide inhibitors of peptidyl arginine deiminase 4 (PADI4) using mRNA-display with a genetically encoded electrophilic warhead” (Communications Chemistry, 2024)
